Measured values published in US9814739B2, “2′-ethynyl nucleoside derivatives for treatment of viral infections” (priority 2012, dated 2017).
Like-named read-outs stand apart in the source and are kept apart here.

Key:
[1] = tested on: Replicon cells, expressing the GT1b HCV luciferase replicon
[2] = tested on: GT1b HCV luciferase replicon; assay: HCV replicon antiviral EC50 assay; type: cell-based, Hepatitis C virus
in vitro = settings: for CC50: HCV GT1b CC50 (uM)
[3] = Hepatitis C virus, GT1B, 72 h, read-out: HCV GT1b EC50 (uM)

Row | Structure (SMILES) | CC50 [1] | EC50 ([2]; read-out: HCV GT1b EC50) | CC50 at 3 days (in vitro) | EC50 [2, 3] | CC50 (in vitro)
1 | C#C[C@@]1(O)[C@H](O)[C@@H](COP(=O)(N[C@@H](C)C(=O)OC2CCCC2)Oc2ccccc2)O[C@H]1n1ccc(=O)[nH]c1=O (single isomer, unassigned) [1.31 (peak 1)] | > 25 µM | 0.024 µM |  |  | 
2 | C#C[C@@]1(O)[C@H](O)[C@@H](COP(=O)(N[C@@H](C)C(=O)OC(CC)CC)Oc2ccccc2)O[C@H]1n1ccc(=O)[nH]c1=O (single isomer, unassigned) [1.16 (peak 1)] | > 25 µM | 0.34 µM |  |  | 
3 | C#C[C@@]1(O)[C@H](O)[C@@H](COP(=O)(N[C@@H](C)C(=O)OCC)Oc2ccccc2)O[C@H]1n1ccc(=O)[nH]c1=O (single isomer, unassigned) [1.36 (peak 1)] | > 25 µM | 0.103 µM |  |  | 
4 | C#C[C@@]1(O)[C@H](O)[C@@H](COP(=O)(N[C@@H](C)C(=O)OC)Oc2ccccc2)O[C@H]1n1ccc(=O)[nH]c1=O (single isomer, unassigned) [1.35 (peak 1)] | > 25 µM | 0.294 µM |  |  | 
5 | C#C[C@@]1(O)[C@H](O)[C@@H](COP(=O)(N[C@@H](C)C(=O)OCC(C)(C)OC)Oc2ccccc2)O[C@H]1n1ccc(=O)[nH]c1=O (single isomer, unassigned) [1.32 (peak 1)] | > 25 µM | 0.53 µM |  |  | 
6 | C#C[C@@]1(O)[C@H](O)[C@@H](COP(=O)(NC(C)(C)C(=O)OCC)Oc2ccccc2)O[C@H]1n1ccc(=O)[nH]c1=O (single isomer, unassigned) [1.37 (peak 1)] | > 25 µM | 0.367 µM |  |  | 
7 | C#C[C@@]1(O)[C@H](O)[C@@H](COP(=O)(NC(C)(C)C(=O)OC(C)C)Oc2ccccc2)O[C@H]1n1ccc(=O)[nH]c1=O (single isomer, unassigned) [1.39 (peak 1)] | > 25 µM | 1.5 µM |  |  | 
8 | C#C[C@@]1(O)[C@H](O)[C@@H](COP(=O)(N[C@@H](C)C(=O)OC(C)C)Oc2ccccc2)O[C@H]1n1ccc(N)nc1=O (single isomer, unassigned) [1.30 (peak 1)] | > 25 µM | 44.9 µM |  |  | 
9 | C#C[C@@]1(O)[C@H](O)[C@@H](COP(=O)(N[C@@H](C)C(=O)O[C@@H](C)CC)Oc2ccccc2)O[C@H]1n1ccc(=O)[nH]c1=O (single isomer, unassigned) [1.13 (peak 1)] | > 25 µM | 0.302 µM |  |  | 
10 | C#C[C@@]1(O)[C@H](O)[C@@H](COP(=O)(N[C@@H](C)C(=O)O[C@H](C)CC)Oc2ccccc2)O[C@H]1n1ccc(=O)[nH]c1=O (single isomer, unassigned) [1.15 (peak 1)] | > 25 µM | 0.172 µM |  |  | 
11 | C#C[C@@]1(O)[C@H](O)[C@@H](COP(=O)(N[C@@H](C)C(=O)OC2CCC2)Oc2ccccc2)O[C@H]1n1ccc(=O)[nH]c1=O (single isomer, unassigned) [1.11 (peak 1)] | > 25 µM | 0.1 µM |  |  | 
12 | C#C[C@@]1(O)[C@H](O)[C@@H](COP(=O)(N[C@@H](C)C(=O)OC(C)C)Oc2ccccc2)O[C@H]1n1ccc(OC)nc1=O (single isomer, unassigned) [1.28 (peak 1)] | > 25 µM | > 100 µM |  |  | 
13 | C#C[C@@]1(O)[C@H](O)[C@@H](COP(=O)(N[C@@H](C)C(=O)OCOC(C)=O)Oc2ccccc2)O[C@H]1n1ccc(=O)[nH]c1=O (single isomer, unassigned) [1.17 (peak 1)] | > 25 µM | 6.8 µM |  |  | 
14 | C#C[C@@]1(O)[C@H](O)[C@@H](COP(=O)(N[C@@H](Cc2ccccc2)C(=O)OC(C)C)Oc2ccccc2)O[C@H]1n1ccc(=O)[nH]c1=O (single isomer, unassigned) [1.10 (peak 1)] | > 25 µM | 2.87 µM |  |  | 
15 | C#C[C@@]1(O)[C@H](O)[C@@H](COP(=O)(N[C@@H](C)C(=O)OC2CCOCC2)Oc2ccccc2)O[C@H]1n1ccc(=O)[nH]c1=O (single isomer, unassigned) [1.14 (peak 1)] | > 25 µM | 1.15 µM |  |  | 
16 | C#C[C@@]1(O)[C@H](O)[C@@H](COP(=O)(N[C@@H](CC)C(=O)OC(C)C)Oc2ccccc2)O[C@H]1n1ccc(=O)[nH]c1=O (single isomer, unassigned) [1.38 (peak 1)] | > 25 µM | 0.37 µM |  |  | 
17 | C#C[C@@]1(O)[C@H](O)[C@@H](COP(=S)(N[C@@H](C)C(=O)OC(C)C)Oc2ccccc2)O[C@H]1n1ccc(=O)[nH]c1=O (stereo partly drawn) [Example 1.19, (2S)-isopropyl 2-(((((2R,3R,4R,5R)-5-(2,4-dioxo-3,4-dihydropyrimidin-1(2H)-yl)-4-ethynyl-3,4-dihydroxytetrahydrofuran-2-yl)methoxy)(phenoxy)phosphorothioyl)amino)propanoate] |  |  | > 25 µM | 0.036 µM | 
18 | C#C[C@@]1(O)[C@H](O)[C@@H](COP(=O)(N[C@@H](C)C(=O)OCC(C)(C)C)Oc2ccccc2)O[C@H]1n1ccc(=O)[nH]c1=O (single isomer, unassigned) [1.33 (peak 1)] | 19.7 µM | 0.081 µM |  |  | 

Row | Structure (SMILES) | CC50 [1] | EC50 ([2]; read-out: HCV GT1b EC50) | CC50 at 3 days (in vitro) | EC50 [2, 3] | CC50 (in vitro)
19 | C#C[C@@]1(O)[C@H](O)[C@@H](COP(=O)(N[C@@H](CC(C)C)C(=O)OC(C)C)Oc2ccccc2)O[C@H]1n1ccc(=O)[nH]c1=O (single isomer, unassigned) [1.23 (peak 1)] | > 25 µM | 2.72 µM |  |  | 
20 | C#C[C@@]1(O)[C@H](O)[C@@H](COP(=O)(N[C@@H](C)C(=O)OC2CCOCC2)Oc2ccccc2)O[C@H]1n1ccc(=O)[nH]c1=O (single isomer, unassigned) [1.14 (peak 2)] |  | 0.459 µM |  |  | > 25 µM
21 | C#C[C@@]1(O)[C@H](O)[C@@H](COP(=O)(N[C@@H](C)C(=O)OC2CCCCC2)Oc2ccccc2)O[C@H]1n1ccc(=O)[nH]c1=O (stereo partly drawn) [Example 1.12, (2S)-cyclohexyl 2-(((((2R,3R,4R,5R)-5-(2,4-dioxo-3,4-dihydropyrimidin-1(2H)-yl)-4-ethynyl-3,4-dihydroxytetrahydrofuran-2-yl)methoxy)(phenoxy)phosphoryl)amino)propanoate] |  |  |  | 0.013 µM | > 25 µM
22 | C#C[C@@]1(O)[C@H](O)[C@@H](COP(=O)(NCCOC(=O)c2ccccc2)Oc2ccccc2)O[C@H]1n1ccc(=O)[nH]c1=O (single isomer, unassigned) [1.18 (peak 1)] | > 25 µM | 0.08 µM |  |  | 
23 | C#C[C@@]1(O)[C@H](O)[C@@H](COP(=O)(NCCOC(=O)c2ccccc2)Oc2ccccc2)O[C@H]1n1ccc(=O)[nH]c1=O (single isomer, unassigned) [1.18 (peak 2)] |  |  |  | 0.089 µM | > 25 µM
24 | C#C[C@@]1(O)[C@H](O)[C@@H](COP(=O)(N[C@@H](C)C(=O)OCC(C)(C)OC)Oc2ccccc2)O[C@H]1n1ccc(=O)[nH]c1=O (single isomer, unassigned) [1.32 (peak 2)] |  | 0.182 µM |  |  | > 25 µM
25 | C#C[C@@]1(O)[C@H](O)[C@@H](COP(=O)(N[C@@H](CCC)C(=O)OC(C)C)Oc2ccccc2)O[C@H]1n1ccc(=O)[nH]c1=O (single isomer, unassigned) [1.24 (peak 1)] | > 25 µM | 0.89 µM |  |  | 
26 | C#C[C@]1(O)[C@H](n2ccc(=O)[nH]c2=O)O[C@@](CO[P@@](=O)(N[C@@H](C)C(=O)OC(C)C)Oc2ccccc2)(N=[N+]=[N-])[C@H]1O [Example 1.26, (2S)-isopropyl 2-(((((2R,3S,4R,5R)-2-azido-5-(2,4-dioxo-3,4-dihydropyrimidin-1(2H)-yl)-4-ethynyl-3,4-dihydroxytetrahydrofuran-2-yl)methoxy)(phenoxy)phosphoryl)amino)propanoate] |  |  |  | 1.44 µM | > 25 µM
27 | C#C[C@@]1(O)[C@H](OC(C)=O)[C@@H](COP(=O)(N[C@@H](C)C(=O)OC(C)C)Oc2ccccc2)O[C@H]1n1ccc(=O)[nH]c1=O (stereo partly drawn) [Example 1.21, (2S)-isopropyl 2-(((((2R,3R,4R,5R)-3-acetoxy-5-(2,4-dioxo-3,4-dihydropyrimidin-1(2H)-yl)-4-ethynyl-4-hydroxytetrahydrofuran-2-yl)methoxy)(phenoxy)phosphoryl)amino)propanoate] |  |  |  | 0.067 µM | > 25 µM
28 | C#C[C@@]1(O)[C@H](O)[C@@H](COP(=O)(N[C@@H](C)C(=O)OC(C)C)Oc2ccccc2)O[C@H]1n1ccc(=O)[nH]c1=O (single isomer, unassigned) [1.25 (peak 1)] |  |  |  | 0.358 µM | > 25 µM
29 | C#C[C@@]1(O)[C@H](O)[C@@H](COP(=O)(N[C@@H](C)C(=O)OC(C)C)Oc2ccccc2)O[C@H]1n1ccc(N)nc1=O (single isomer, unassigned) [1.30 (peak 2)] |  |  |  | 54.3 µM | > 25 µM
30 | C#C[C@@]1(O)[C@H](O)[C@@H](COP(=O)(N[C@@H](C)C(=O)OC(CCC)CCC)Oc2ccccc2)O[C@H]1n1ccc(=O)[nH]c1=O (single isomer, unassigned) [1.34 (peak 1)] | > 25 µM | 0.301 µM |  |  | 
31 | C#C[C@@]1(O)[C@H](O)[C@@H](COP(=O)(N[C@@H](C)C(=O)OCC(C)(C)C)Oc2ccccc2)O[C@H]1n1ccc(=O)[nH]c1=O (single isomer, unassigned) [1.33 (peak 2)] |  | 0.994 µM |  |  | > 25 µM
32 | C#C[C@@]1(O)[C@H](O)[C@@H](COP(=O)(N[C@@H](C)C(=O)OC(C)C)Oc2ccccc2)O[C@H]1n1ccc(OC)nc1=O (single isomer, unassigned) [1.28 (peak 2)] |  |  |  | > 100 µM | > 25 µM
33 | C#C[C@@]1(O)[C@H](O)[C@@H](COP(=O)(N[C@@H](C)C(=O)OC2CCC2)Oc2ccccc2)O[C@H]1n1ccc(=O)[nH]c1=O (single isomer, unassigned) [1.11 (peak 2)] |  |  |  | 0.058 µM | > 25 µM
34 | C#C[C@@]1(O)[C@H](O)[C@@H](COP(=O)(N[C@@H](Cc2ccccc2)C(=O)OC(C)C)Oc2ccccc2)O[C@H]1n1ccc(=O)[nH]c1=O (single isomer, unassigned) [1.10 (peak 2)] |  | 0.023 µM |  |  | > 25 µM
35 | C#C[C@@]1(O)[C@H](O)[C@@H](COP(=O)(N[C@@H](CC(C)C)C(=O)OC(C)C)Oc2ccccc2)O[C@H]1n1ccc(=O)[nH]c1=O (single isomer, unassigned) [1.23 (peak 2)] |  | 0.305 µM |  |  | > 25 µM
36 | C#C[C@@]1(O)[C@H](O)[C@@H](COP(=O)(NC(C)(C)C(=O)OC(C)C)Oc2ccccc2)O[C@H]1n1ccc(=O)[nH]c1=O (single isomer, unassigned) [1.39 (peak 2)] |  | 0.047 µM |  |  | > 25 µM
